Patent US20260132126A1, “IMIDAZOLE DERIVATIVES” (SANWA KAGAKU KENKYUSHO CO., LTD., priority 2022, published 2026)

Target: T1, human α1A adrenergic receptor (Homo sapiens, UniProt P35348)
T1 construct: host or cells: GeneBLAzer ADRA1A-NFAT-bla CHO-K1 cells
T1 sequence (P35348 1-466): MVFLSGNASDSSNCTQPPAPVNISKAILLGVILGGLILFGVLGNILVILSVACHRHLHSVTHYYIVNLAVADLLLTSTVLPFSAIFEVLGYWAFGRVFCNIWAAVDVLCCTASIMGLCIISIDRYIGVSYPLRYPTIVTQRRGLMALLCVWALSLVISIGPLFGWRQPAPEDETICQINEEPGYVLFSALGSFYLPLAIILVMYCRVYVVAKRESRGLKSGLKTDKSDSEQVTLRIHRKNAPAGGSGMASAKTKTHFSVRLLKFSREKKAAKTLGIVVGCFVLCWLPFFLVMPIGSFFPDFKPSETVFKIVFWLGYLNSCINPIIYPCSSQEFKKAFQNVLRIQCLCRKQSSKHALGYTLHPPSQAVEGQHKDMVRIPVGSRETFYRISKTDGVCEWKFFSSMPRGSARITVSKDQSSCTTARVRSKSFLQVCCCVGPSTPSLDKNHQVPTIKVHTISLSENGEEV
Experiment: Ca2+ mobilization assay in human α1A adrenergic receptor-expressing cells
Assay type: cell-based
Parameters: Emax: dose or concentration left out as unconfirmed
Settings: for Emax at 10 µM: % activation at 10 μmol/L test compound, 100 μmol/L norepinephrine = 100%, well without test compound = 0%; for EC50: CHO-K1 cells expressing human α1A adrenergic receptor, Fluo-4 fluorescence, concentration giving 50% response of Emax, 4-parameter logistic regression
Protocol: CHO-K1 cells that highly express a human α1A adrenergic receptor (GeneBLAzer™ ADRA1A-NFAT-bla CHO-K1 Cells) were purchased from Thermo Fisher Scientific, Inc., and cultured according to the instructions.
The cultured human α1A adrenergic receptor-expressing cells were washed with D-PBS, then replaced with a loading buffer (2 μmol/L Fluo-4/AM, 1× PowerLoad, 2.5 mmol/L Probenecid-containing DMEM (high-glucose)) and incubated at 37° C. for 60 minutes in a 5% CO2 incubator. The cells were detached using 0.05% trypsin-EDTA solution, and suspended in an assay buffer ([…], 0.054 mol/L KCl, 1.8 mmol/L CaCl2), 1 mmol/L MgSO4, 0.11 mol/L glucose, 0.01 mol/L NaH2PO4·2H2O, […], pH 7.3) to be 500,000 cells/mL.
Test compounds were dissolved in dimethylsulfoxide, and diluted with an assay buffer containing 0.3% BSA. The final concentrations of the test compounds were set to fall within the range of 0.1 nmol/L to 10 μmol/L. As a reference compound, norepinephrine was set to have a final concentration within the range of 0.01 nmol/L to 100 μmol/L.
On a 384-well clear bottom black plate coated with poly-D-lysine (Corning Inc.), the above-described cell-suspended solution was dispersed in 40 μL each (20,000 cells/well) and allowed to stand for 10 minutes. The plate was transferred to a fluorescent imaging plate reader (FDSS7000, Hamamatsu Photonics K.K.), and measurements were started. After 1 minute from the start of the measurements, 20 μL of the test compound solutions or norepinephrine solution (total amount: 60 μL/well) was added to each well of the plate (final concentration: 0.1% BSA, 0.1% dimethylsulfoxide), and the temporal change in fluorescence intensity of Fluo-4 was further measured for 5 minutes (Ex 480 nm/Em 540 nm).
The normalized values (% activation) were used for subsequent analyses.
Emax values and EC50 values were calculated by creating a concentration-response curve of the test compounds using a 4-parameter logistic regression with XLFit, Emax value being defined as % activation of test compound at the concentration of 10 μmol/L, and EC50 value being defined as the concentration in which 50% response of the Emax values is shown.

| Structure (SMILES) | Emax at 10 µM | EC50 | Emax |
| --- | --- | --- | --- |
| COc1cccc(-c2ccccc2NCc2c[nH]cn2)n1 [Example 32, N-((1H-imidazol-4-yl)methyl)-2-(6-methoxypyridin-2-yl)aniline] | 100% | 1.1 nM | – |
| CC(Nc1ccccc1-c1cccnc1)c1c[nH]cn1 (stereo not drawn) [Example 35, N-(1-(1H-Imidazol-4-yl)ethyl)-2-(pyridin-3-yl)aniline] | 90% | 5.1 nM | – |
| COc1cccc(-c2ccccc2NC(C)c2c[nH]cn2)n1 (stereo not drawn) [Example 37, N-(1-(1H-imidazol-4-yl)ethyl)-2-(6-methoxypyridin-2-yl)aniline] | – | 2.1 nM | 109% |
| CC(Nc1ccccc1-c1cscn1)c1c[nH]cn1 (stereo not drawn) [Example 38, N-(1-(1H-imidazol-4-yl)ethyl)-2-(thiazol-4-yl)aniline] | – | 0.8 nM | 107% |
| c1nc(CNc2cscc2-c2ccoc2)c[nH]1 [Example 41, N-((1H-Imidazol-4-yl)methyl)-4-(furan-3-yl)thiophen-3-amine] | 92% | 3.4 nM | – |
| c1ncc(-c2cscc2NCc2c[nH]cn2)cn1 [Example 42] | 97% | 7.3 nM | – |
| COc1ncccc1-c1cscc1NCc1c[nH]cn1 [Example 43] | 90% | 0.6 nM | – |
| c1ccc(-c2ccsc2)c(OCc2c[nH]cn2)c1 [Example 44, 4-((2-(Thiophen-3-yl)phenoxy)methyl)-1H-imidazole] | 108% | 2.2 nM | – |
| c1coc(-c2ccccc2OCc2c[nH]cn2)c1 [Example 45] | 107% | 9.4 nM | – |
| c1csc(-c2ccccc2OCc2c[nH]cn2)c1 [Example 46] | 104% | 4.8 nM | – |
| c1cncc(-c2ccccc2OCc2c[nH]cn2)c1 [Example 48] | 104% | 3 nM | – |
| Fc1cncc(-c2ccccc2OCc2c[nH]cn2)c1 [Example 51] | 102% | 1.8 nM | – |
| COc1ncccc1-c1ccccc1OCc1c[nH]cn1 [Example 52] | 90% | 2.7 nM | – |
| COc1cncc(-c2ccccc2OCc2c[nH]cn2)c1 [Example 53] | 93% | 5.1 nM | – |
| c1ccc(-c2cscn2)c(OCc2c[nH]cn2)c1 [Example 67, 4-(2-((1H-Imidazol-4-yl)methoxy)phenyl)thiazole] | 103% | 2.1 nM | – |
| c1ccc(-c2cnccn2)c(OCc2c[nH]cn2)c1 [Example 68] | – | 2.3 nM | 100% |
| c1ccc(-c2cncnc2)c(OCc2c[nH]cn2)c1 [Example 69] | – | 0.9 nM | 104% |
| c1ccc(-c2nccs2)c(OCc2c[nH]cn2)c1 [Example 70] | – | 2.4 nM | 93% |
| c1ccc(-c2cncs2)c(OCc2c[nH]cn2)c1 [Example 71] | – | 1.9 nM | 103% |
| Cc1ccncc1-c1ccccc1OCc1c[nH]cn1 [Example 72] | – | 7.4 nM | 106% |
| c1ccc(-c2cnccc2C2CC2)c(OCc2c[nH]cn2)c1 [Example 73] | – | 0.7 nM | 89% |
| COc1c(F)cncc1-c1ccccc1OCc1c[nH]cn1 [Example 74] | – | 0.5 nM | 96% |
| COc1ncncc1-c1ccccc1OCc1c[nH]cn1 [Example 75] | – | 0.2 nM | 95% |
| Cc1ncncc1-c1ccccc1OCc1c[nH]cn1 [Example 76] | – | 3.3 nM | 98% |
| COc1cncc(-c2ccccc2OCc2c[nH]cn2)n1 [Example 77] | – | 0.6 nM | 92% |
| CC(Oc1ccccc1-c1cccs1)c1c[nH]cn1 (stereo not drawn) [Example 78, 4-(1-(2-(Thiophen-2-yl)phenoxy)ethyl)-1H-imidazole] | 99% | 6.4 nM | – |
| c1cncc(-c2ccccc2SCc2c[nH]cn2)c1 [Example 80, 3-(2-(((1H-Imidazol-4-yl)methyl)thio)phenyl)pyridine] | 101% | 3.4 nM | – |
| c1ccc(-c2cn[nH]c2)c(SCc2c[nH]cn2)c1 [Example 81] | 106% | 9 nM | – |
| c1ccc(-c2ccsc2)c(SCc2c[nH]cn2)c1 [Example 82] | 104% | 6.9 nM | – |
| c1ccc(-c2cnco2)c(NCc2c[nH]cn2)c1 [compound 1, N-((1H-imidazol-4-yl)methyl)-2-(oxazol-5-yl) aniline, reference compound] | 91% | 20 nM | – |

Continued, in another order:

| Emax at 10 µM | EC50 | Structure (SMILES) | Emax |
| --- | --- | --- | --- |
| 97% | 3.9 nM | COc1n[nH]cc1-c1ccc(C)cc1NCc1c[nH]cn1 [Example 33, N-((1H-Imidazol-4-yl)methyl)-2-(3-methoxy-1H-pyrazol-4-yl)-5-methylaniline] | – |
| 91% | 1.3 nM | COc1n[nH]cc1-c1ccc(F)cc1NCc1c[nH]cn1 [Example 34, N-((1H-imidazol-4-yl)methyl)-5-fluoro-2-(3-methoxy-1H-pyrazol-4-yl)aniline] | – |
| 95% | 9.9 nM | c1ccc(-c2cn[nH]c2)c(OCc2c[nH]cn2)c1 [Example 47, 4-(2-((1H-imidazol-4-yl)methoxy)phenyl)-1H-pyrazole] | – |
| 104% | 4.3 nM | Cc1n[nH]cc1-c1ccccc1OCc1c[nH]cn1 [Example 49] | – |
| 110% | 0.9 nM | N#Cc1n[nH]cc1-c1ccccc1OCc1c[nH]cn1 [Example 50] | – |
| 98% | 1.6 nM | COc1ccncc1-c1ccccc1OCc1c[nH]cn1 [Example 54] | – |
| 101% | 0.6 nM | Cc1ccc(-c2cn[nH]c2)c(OCc2c[nH]cn2)c1 [Example 55] | – |
| 105% | 0.8 nM | Cc1ccc(-c2c[nH]nc2C#N)c(OCc2c[nH]cn2)c1 [Example 56] | – |
| 96% | 6.1 nM | Cc1ccc(-c2cnccc2C)c(OCc2c[nH]cn2)c1 [Example 57] | – |
| 97% | 1 nM | Cc1n[nH]cc1-c1ccc(F)cc1OCc1c[nH]cn1 [Example 58] | – |
| 101% | 0.4 nM | Cc1ccc(-c2c[nH]nc2C)c(OCc2c[nH]cn2)c1 [Example 59] | – |
| 90% | 3.2 nM | Cc1c(F)cncc1-c1ccccc1OCc1c[nH]cn1 [Example 60] | – |
| 90% | 4.5 nM | COc1ncc(F)cc1-c1ccccc1OCc1c[nH]cn1 [Example 61] | – |
| 91% | 2.4 nM | COc1ccncc1-c1ccc(C)cc1OCc1c[nH]cn1 [Example 62] | – |
| 92% | 0.7 nM | COc1ccncc1-c1ccc(F)cc1OCc1c[nH]cn1 [Example 63] | – |
| 99% | 5.3 nM | Cc1ncncc1-c1ccc(F)cc1OCc1c[nH]cn1 [Example 64] | – |
| 98% | 6.7 nM | Cc1ccc(-c2cncnc2C)c(OCc2c[nH]cn2)c1 [Example 65] | – |
| 96% | 1.3 nM | Cc1ccc(-c2cnccn2)c(OCc2c[nH]cn2)c1 [Example 66, 2-(2-((1H-Imidazol-4-yl)methoxy)-4-methylphenyl)pyrazine] | – |
